According to patent publication US4337339A, “Process for preparation of folic acid derivatives” (Baker Instruments Corp., priority 1979, dated 1982):

Experiments:
[1] = target: whole milk folate binder (Bos taurus, UniProt P02702); assay: competitive protein binding (CPB) radioassay for folates using pteroyltyrosine [125I] as radiolabel; conditions: for dose response curves generated using pteroyltyrosine [125I] as label, folic acid versus N5-methyl THF: at high pH compared with lower pH; for behaviour in the folate competitive protein binding assay of radiolabel made from directly coupled p-aminobenzoyltyrosine product, compared with label from the hydrolyzed ester: pteroyltyrosine from 6-formylpterin + H-PABA-L-Tyr-OH (Example 1f(2)), radioiodinated, gel chromatography
whole milk folate binder, sequence (P02702 20-234): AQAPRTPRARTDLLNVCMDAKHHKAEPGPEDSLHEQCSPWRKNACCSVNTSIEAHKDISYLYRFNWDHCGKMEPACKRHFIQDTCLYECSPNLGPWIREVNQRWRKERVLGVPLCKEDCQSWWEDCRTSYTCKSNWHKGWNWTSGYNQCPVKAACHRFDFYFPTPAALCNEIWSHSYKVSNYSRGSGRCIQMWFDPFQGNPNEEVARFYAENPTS
Procedure: The use of the Centria® analytical system, Union Carbide Corporation, in this example, is meant to be illustrative and other methods, both automated and manual, obvious to those skilled in the clinical diagnostic art are also within the scope of this invention.
Briefly, the Centria® system is a tri-modular instrument in which reagents are pipetted on to a multiwell transfer disk and mixed centrifugally with standards or patients' samples. After a suitable incubation period, the components are separated by a centrifugal elution of the bound and free fractions and the bound fractions counted three at a time.
Folic acid and N^5 -methyltetrahydrofolic acid standards in the range 0-20 nanograms/milliliter were prepared in 0.05 M sodium borate, pH 9.3 containing 0.1% human serum albumin. The whole milk binder was prepared according to the method of Rothenberg et al., (3) and dissolved in sodium borate, pH 9.3 containing 0.1% human serum albumin.
(50 microliters, 20,000 cpm) plus 85 microliters of water with the limited number of binding sites contained in a 200 microliter solution of whole milk folate binder. The binding reactions may be shown as follows:
After a 10 minute incubation, the reaction mixture was centrifugally transferred onto DEAE Sephadex A-25 columns (0.75×4 in.) where separation of complexed folate from free folate was effected with 1.4 ml of elution buffer
(3) S. Rothenberg, M. DaCosta, and Z. Rosenberg, New Eng.
A gamma counter which counts three of the 36 positions at a time for one minute, so constructed that only the eluate bottom portion of the test tubes fits into the counter, was then used to count all samples. Sequential counting of the tubes thus required about 12 minutes. A small computer with printout capability then printed out the data after completion of the cycle.

[2] = storage stability of the radioiodinated product, judged by assay performance; assay type: physicochemical; conditions: ten-week period, stored in 50% aqueous propylene glycol solution
From the text: Radioiodination of biological compounds frequently leads to marked chemical instability and subsequent degradation of the radiolabel. This problem is often accentuated in the radiolabel when the materials to be radioiodinated are known to be sensitive to oxygen, light or extremes in pH, as is the case with folic acid and some derivatives.
The reaction mixture was applied to a 1×20 cm Sephadex G25, fine, (Pharmacia Fine Chemicals, Uppsala, Sweden) column hydrated with distilled water and equilibrated with 0.1 M potassium phosphate, pH 7.5. The column was eluted with 0.1 M potassium phosphate buffer and 3 ml fractions collected. The product "peak" fractions 32-34 were collected, diluted 1:1 with propylene glycol and stored below 0° C.

[3] = system: carboxypeptidase A; assay: enzymatic hydrolysis of pteroyltyrosine followed by UV spectrophotometry; assay type: biochemical; conditions: two hours, ambient temperature, Tris-HCl with zinc chloride pH 7.3
Procedure: Two millilters of a solution of pteroyltrosine ([…]) in 0.025 M Tris-HCl containing 2 mM zinc chloride, pH 7.3 were diluted to 10 ml with distilled water. A portion of this solution (2 ml) was placed in a 1 cm cuvette and in another was placed 2 ml of distilled water. To each of the cuvettes was added 50 μl of a solution of 100 μl carboxypeptidase A suspension (Aldrich chemical, lot (060637) diluted with 0.9 ml of 10% lithium chloride.
The time course of the reaction was followed spectrophotometrically (uv) over a period of two hours at ambient temperature. An increase and shift in max from 280 to 277 nm and a marked decrease in absorption at 220 nm was observed. Two isobestic points at 242 and 282 nm were visible.

SMILES: CN1c2c(O)nc(N)nc2NCC1CNc1ccc(C(=O)N[C@@H](CCC(=O)O)C(=O)O)cc1 (stereo partly shown) [N^5 -methyl THF, N-5-methyltetrahydrofolic acid, reference compound]
- dose response curves generated using pteroyltyrosine [125I] as label, folic acid versus N5-methyl THF [1]: more nearly coincident than at lower pH

SMILES: Nc1nc2ncc(CNc3ccc(C(=O)N[C@@H](CCC(=O)O)C(=O)O)cc3)nc2c(=O)[nH]1 [folic acid]
- dose response curves generated using pteroyltyrosine [125I] as label, folic acid versus N5-methyl THF [1]: more nearly coincident than at lower pH

SMILES: Nc1nc(O)c2nc(CNc3ccc(C(=O)N[C@@H](Cc4ccc(O)c([125I])c4)C(=O)O)cc3)cnc2n1 [pteroyltyrosine [^125 I]]
- performance as radiolabel in CPB radioassay for folic acid ([1]; folic acid concentration range 0-20 ng/ml): effective radiolabel
- stability of radioiodinated product (assay performance on storage) [2]: no deterioration in assay performance

SMILES: Nc1nc2ncc(CNc3ccc(C(=O)N[C@@H](Cc4ccc(O)cc4)C(=O)O)cc3)nc2c(=O)[nH]1 [pteroyltyrosine, Pteroyl-L-Tyrosine]
- behaviour in the folate competitive protein binding assay of radiolabel made from directly coupled p-aminobenzoyltyrosine product, compared with label from the hydrolyzed ester [1]: functioned identically
- behaviour in the folate competitive protein binding assay of radiolabel made from directly coupled p-aminobenzoyltyrosine product, compared with label from the hydrolyzed ester ([1]; listed as Pt-L-Tyr-OH): identically
- UV spectral change on treatment with carboxypeptidase A (hydrolysis) [3]: final spectrum was very similar to that of pteroic acid
